Data on four compounds can be found in patent publication EP1519709B1, “NOVEL COSMETIC APPLICATIONS OF POLYPHENOLS AND DERIVATIVES THEREOF” (Caudalie, priority 2002, dated 2004).

Like-named read-outs stand apart in the source and are kept apart here.

The assay concerns the target tyrosinase (enzyme EC 1.14.18,1, issue de champignon). The experiment in a line: Tyrosinase inhibition test (L-dopa to dopachrome, read at 475 nm). In kind it is biochemical. Conditions: for IC50: read-out: CI50 (the source's name). The procedure: Mélange A : l'échantillon à tester à différentes concentrations (200 μL), ainsi qu'un "contrôle" (tampon phosphate, pH 6,5), sont incubés pendant 30 minutes à 37°C en présence de tyrosinase (enzyme EC 1.14.18,1, issue de champignon; 200μL, 300 U/mL). Mélange B : 200 μL de L-dopa (2,5 mM) sont additionnés à 400 μL de tampon phosphate (pH 6,5). Après les 30 minutes d'incubation, le mélange A est ajouté au mélange B et la dopachrome produite est mesurée à 475 nm au bout d'une minute […].

Setting [1] is: mushroom tyrosinase 300 U/mL, 30 min preincubation at 37°C, phosphate buffer pH 6,5, L-dopa 2,5 mM, dopachrome at 475 nm, mean with spread, n in cell.

Turning to `Oc1ccc(C=Cc2cc(O)cc(O)c2)cc1` [Bloc II, resvératrol, reference compound], for the setting “bounds stated in running text for the tyrosinase inhibition tests under the conditions of the examples”, the IC50 was over 60 µM.

As to `Oc1ccc(/C=C/c2cc(O)cc3c2[C@@H](c2cc(O)cc(O)c2)[C@H](c2ccc(O)cc2)O3)cc1` [Bloc VIII, ε-viniférine], the “IC50 of the dimer relative to that of the monomer (resvératrol)” value (tyrosinase inhibition test) is under 10 fois.

Consider `Oc1ccc(C=Cc2cc(O)cc(O)c2)cc1` [II], for which the IC50 under setting [1] came out at 61.4 µM.

Regarding `Oc1ccc(C=Cc2cc(O)cc3c2C(c2cc(O)cc(O)c2)C(c2ccc(O)cc2)O3)cc1` (stereo not shown) [VIII], under setting [1], the IC50 was 10.4 µM.
